The subject of the experiment is Oct4 promoter. Description: Luciferase reporter gene assay of derivatives on Oct4 expression (co-transfection with pCMV-β-gal) in P19 cells. Type of experiment: cell-based, mouse. To be noted: 5 μg/mL, 12-24 h, DMSO control, FIG. 6. On the procedure: The effect of derivatives of ethyl p-methoxycinnamate on Oct4 expression was assayed by a luciferase reporter gene method, the derivatives including diethyl 4-methoxybenzalmalonate, ethyl 3-(3-methoxy-4-methoxycarbonylmethoxyphenyl)acrylate, diethyl 4-acetoxybenzylidenemalonate, chlorogenic acid, ethyl cinnamate, 3-cinnamoyloxypropyl 3-propylacrylate, ethyl 2-cyano-3,3-diphenylacrylate, ethyl 2,6-dichlorocinnamate, diethyl 4-chlorobenzylidenemalonate, ethyl 4-aminocinnate, ethyl 3-cyanocinnamate, ethyl 4-nitrocinnamate, 3-[3-(4-methoxyphenyl)acryloyloxymethyl]benzyl 3-(4-methoxyphenyl)acrylate, 4-[3-(4-methoxyphenyl)acryloyloxy]butyl-2-ynyl 3-(4-methoxyphenyl)acrylate, ethyl indole-2-carboxylate, and ethyl 6-methoxy-1-benzofuran-2-carboxylate.
One day before transfection, mouse teratoma cells P19 were inoculated into a 24-well cell culture plate at a density of 1×10^5 cells/well, to make the cells grown to about 80% before transfection. A liposomal transfection reagent Entranster™-D from Engreen company was used to perform the transfection according to the instructions, to co-transfect the P19 cells with target plasmid (PGL3-Oct4P-Basic or pGL3-Basic) and reference plasmid (pCMV-β-gal). The total amount of the plasmid used for transfection was 1 μg/well (the target plasmid:the reference plasmid=2:1). The plasmid was added to 25 μL of serum-free DMEM culture medium, and fully mixed. 3 μL of the transfection reagent was then added to another 25 μL of serum-free DMEM culture medium, mixed well, and allowed to stand for 5 min. The DMEM culture medium containing the transfection reagent was then added to the DMEM culture medium containing the plasmid, and the mixture was immediately pipetted more than 10 times, and allowed to stand at room temperature for 30 min. 250 μL of DMEM culture medium containing 10% fetal calf serum was added to the mixed solution, and gently mixed well. The original cell culture medium in the 24-well plate was discarded, and replaced with the above mixed solution. After being cultured for 4-6 h in a 5% CO2 cell incubator at 37° C., the original culture medium was absorbed and removed, and replaced with 500 μL of DMEM culture medium containing 10% fetal calf serum. […] After subsequent continuous culture for 12-24 h, the cells were lysed, and the luciferase activity was assayed.
Luciferase Reporter Assay System and FluoStar Optima were used to assay the luciferase activity of the transfected cell lysis solution. To 45 μL of the cell lysis solution was added 5 μL of Assay Cocktail reagent, after they were mixed well, 100 μL of Luciferin reaction solution was added, and fluorescence counting in 2 s was measured using FluoStar Optima instrument, which reflected the activity level of the studied plasmid reporter genes expressing firefly luciferase. To another 20 μL of the cell lysis solution was added 37.5 μL of β-gal Buffer followed by 12.5 μL of ONPG (6 mg/mL), and after they were mixed well, they were allowed to stand at 37° C. for 30 min. An absorption value at 450 nm was assayed using a microplate reader, which reflected the activity level of internal reference plasmid pCMV-β-gal expressing β-galactosidase. The ratio between the activity of the firefly luciferase and the activity of the β-galactosidase (β-gal) excluded the difference of the sample transfection efficiency, and could relatively objectively reflect the difference of promoter activity between samples. The relative luciferase activity of different samples was calculated through the following equation: […]
A general note: Reporter assays use an easily measured gene product as a stand-in for the process of interest.

The structures appear in SMILES notation.

As for `CCOC(=O)C=Cc1ccccc1` [ethyl cinnamate], the “effect of derivatives on the activity of the Oct4 promoter (relative luciferase activity)” value (“effect … (relative luciferase activity)” below) is reported as “have the effect of enhancing the activity of the Oct4 promoter”.

With `CCOC(=O)C(=Cc1ccc(OC(C)=O)cc1)C(=O)OCC` [diethyl 4-acetoxybenzylidenemalonate], the “effect … (relative luciferase activity)” value was “have the effect of enhancing the activity of the Oct4 promoter”.

Turning to `CCCC=CC(=O)OCCCOC(=O)C=Cc1ccccc1` [3-cinnamoyloxypropyl 3-propylacrylate], the “effect … (relative luciferase activity)” value is listed as “have the effect of enhancing the activity of the Oct4 promoter”.

As for `O=C(/C=C/c1ccc(O)c(O)c1)O[C@@H]1C[C@](O)(C(=O)O)C[C@@H](O)[C@H]1O` [chlorogenic acid], the “effect … (relative luciferase activity)” value was “have the effect of enhancing the activity of the Oct4 promoter”.

Consider `CCOC(=O)C(C#N)=C(c1ccccc1)c1ccccc1` [ethyl 2-cyano-3,3-diphenylacrylate], for which the “effect … (relative luciferase activity)” value is listed as “have the effect of enhancing the activity of the Oct4 promoter”.

For the compound `COc1ccc(C=CC(=O)OCC#CCOC(=O)C=Cc2ccc(OC)cc2)cc1` [4-[3-(4-methoxyphenyl)acryloyloxy]butyl-2-ynyl 3-(4-methoxyphenyl)acrylate], the “effect … (relative luciferase activity)” value is “have the effect of enhancing the activity of the Oct4 promoter”.

Consider `COc1ccc(C=CC(=O)OCc2cccc(COC(=O)C=Cc3ccc(OC)cc3)c2)cc1` [3-[3-(4-methoxyphenyl)acryloyloxymethyl]benzyl 3-(4-methoxyphenyl)acrylate], for which the “effect … (relative luciferase activity)” value was “have the effect of enhancing the activity of the Oct4 promoter”.

On to `CCOC(=O)c1cc2ccccc2[nH]1` [ethyl indole-2-carboxylate], for which the “effect … (relative luciferase activity)” value is given as “have the effect of enhancing the activity of the Oct4 promoter”.
